From publication PMC10945555, “Improving Activity of New Arylurea Agents against Multidrug-Resistant and Biofilm-Producing Staphylococcus epidermidis” (ACS Medicinal Chemistry Letters, 2024)
≈ marks a conversion by molar mass, not a printed value.

Tests used:
H9c2 cells = assay: Cytotoxicity, MTT assay, cardiomyocytes; format: cell-based; details: Rattus norvegicus, 24 h, n = 3
Description: (§1) The following cell models were used in the research: rat cardiomyocytes (H9c2 line) and human skin fibroblasts (BJ line). All cell lines used in the work are commercially available and were purchased from ATCC banks (the American Type Culture Collection, Manassas, VI, USA). Cell cultures were carried out in an incubator under standard conditions (37°C, 5% CO 2).
(§2) Culture media (Dulbecco's Modified Eagle's Medium -DMEM (H9c2) and Eagle's Minimum Essential Medium-EMEM (BJ) were supplemented with 10% bovine serum and a 1% mixture of penicillin and streptomycin antibiotics. […]
(§3) doxorubicin (a cytotoxic drug) were used as reference and positive control, respectively. […]
(§4) incubated with studied compound in appropriate concentration for next 24 h. Then MTT solution (5 mg/mL) was transferred into culture medium of incubated cells. After 3 h, once dark crystals of formazan were produced in cells, medium was aspirated and 100 μ L of DMSO was added to dissolve formazan. Absorbance of DMSO solution was read on a multiwell plate reader (Spectra Max iD3, Molecular Devices) at 570 nm. In order to determine viability, absorbance of experimental wells was divided by absorbance of contro l well (not treated) and multiplied by 100 (%). Three separate experiments were performed. IC 50 was calculated using non-linear regression method in OriginPro software. […]

BJ cells = assay: Cytotoxicity, MTT assay, skin fibroblasts; format: cell-based, human; details: Homo sapiens, MTT, 24 h, n = 3
Description: as §1, §2, §3
as §4, with “solution” for “incubated with studied compound in appropriate concentration for next 24 h. Then MTT solution”

[1] = tested on: biofilm-producing Staphylococcus epidermidis strains; assay: Inhibition of biofilm formation (MBIC, resazurin); format: cell-based
Description: After 24 hours incubation each well of
concentration of 4 mg/mL was added. […]

[2] = tested on: biofilm-producing Staphylococcus epidermidis strains; assay: Biofilm eradication (MBEC Assay Kit); format: cell-based
[3] = S. epidermidis ATCC 35984 (Table S4)

For `O=S(=O)(NC1CCN(CCC(Oc2ccc(C(F)(F)F)cc2)c2cccs2)CC1)c1cccc(Cl)c1` (centres unmarked) [Compound 14], the IC50 (H9c2 cells) was 28 µg/mL (≈ 50.1 µM), the IC50 (BJ cells) was 9.9 µg/mL (≈ 17.7 µM) and the MBIC [1, 3] was 31.25 µg/mL. For the same compound, the MBIC50 ([1]; Table S4 strains) was 125 µg/mL, the MBIC ([1]; clinical strain 1 (Table S4)) was 31.25 µg/mL and the MBIC ([1]; clinical strain 2 (Table S4)) was 125 µg/mL. It also gave an MBIC ([1]; clinical strain 3 (Table S4)) of 125 µg/mL, an MBIC ([1]; clinical strain 4 (Table S4)) of 125 µg/mL and an MBIC ([1]; clinical strain 5 (Table S4)) of 62.5 µg/mL. It also gave an MBIC ([1]; clinical strain 6 (Table S4)) of 125 µg/mL, an MBIC ([1]; clinical strain 7 (Table S4)) of 125 µg/mL and an MBIC ([1]; clinical strain 8 (Table S4)) of 15.6 µg/mL. It also gave an MBIC ([1]; clinical strain 9 (Table S4)) of 125 µg/mL, an MBIC ([1]; clinical strain 11 (Table S4)) of 125 µg/mL and an MBIC ([1]; clinical strain 12 (Table S4)) of 125 µg/mL. The MBIC ([1]; clinical strain 13 (Table S4)) was 62.5 µg/mL, the MBIC ([1]; clinical strain 15 (Table S4)) was 125 µg/mL and the MBIC ([1]; clinical strain 16 (Table S4)) was 31.25 µg/mL. The MBIC ([1]; clinical strain 17 (Table S4)) was 62.5 µg/mL, the MBIC ([1]; clinical strain 19 (Table S4)) was 31.25 µg/mL and the MBIC ([1]; clinical strain 21 (Table S4)) was 125 µg/mL. It also gave an MBIC ([1]; clinical strain 22 (Table S4)) of 125 µg/mL, an MBIC ([1]; clinical strain 23 (Table S4)) of 7.8 µg/mL and an MBIC ([1]; clinical strain 25 (Table S4, Figure 2)) of 31.25 µg/mL. For the same compound, the MBIC ([1]; clinical strain 26 (Table S4)) was 125 µg/mL, the MBIC ([1]; clinical strain 27 (Table S4)) was 250 µg/mL and the MBIC ([1]; clinical strain 28 (Table S4)) was 62.5 µg/mL. The MBIC ([1]; clinical strain 29 (Table S4)) was 62.5 µg/mL, the MBIC ([1]; clinical strain 30 (Table S4)) was 62.5 µg/mL and the MBIC ([1]; clinical strain 33 (Table S4)) was 125 µg/mL. The MBIC ([1]; clinical strain 35 (Table S4)) was 125 µg/mL, the MBIC ([1]; clinical strain 36 (Table S4)) was 62.5 µg/mL and the MBIC ([1]; clinical strain 37 (Table S4)) was 125 µg/mL. It also gave an MBIC ([1]; clinical strain 39 (Table S4)) of 15.6 µg/mL, an MBIC ([1]; clinical strain 40 (Table S4)) of 31.25 µg/mL and an MBIC ([1]; clinical strain 41 (Table S4)) of 125 µg/mL. It also gave an MBIC ([1]; clinical strain 42 (Table S4)) of 125 µg/mL, an MBIC ([1]; clinical strain 43 (Table S4)) of 250 µg/mL and an MBIC ([1]; clinical strain 44 (Table S4)) of 62.5 µg/mL. It also gave an MBIC ([1]; clinical strain 45 (Table S4)) of 125 µg/mL, an MBIC ([1]; clinical strain 46 (Table S4)) of 125 µg/mL and an MBIC ([1]; clinical strain 47 (Table S4)) of 62.5 µg/mL. It also gave an MBIC ([1]; clinical strain 49 (Table S4)) of 31.25 µg/mL, an MBIC ([1]; clinical strain 51 (Table S4)) of 125 µg/mL and an MBIC ([1]; clinical strain 55 (Table S4)) of 125 µg/mL. For the same compound, the MBIC ([1]; clinical strain 58 (Table S4)) was 125 µg/mL, the MBIC ([1]; clinical strain 59 (Table S4)) was 125 µg/mL and the MBIC ([1]; clinical strain 65 (Table S4)) was 125 µg/mL. The MBIC ([1]; clinical strain 66 (Table S4)) was 125 µg/mL, the MBIC ([1]; clinical strain 67 (Table S4)) was 125 µg/mL and the MBIC ([1]; clinical strain 70 (Table S4)) was 125 µg/mL. The MBIC ([1]; clinical strain 73 (Table S4)) was 31.25 µg/mL, the MBIC ([1]; clinical strain 74 (Table S4)) was 125 µg/mL and the MBIC ([1]; clinical strain 75 (Table S4)) was 31.25 µg/mL. The MBIC ([1]; clinical strain 78 (Table S4)) was 15.6 µg/mL, the MBIC ([1]; clinical strain 79 (Table S4)) was 31.25 µg/mL and the MBEC [2, 3] was 31.25 µg/mL. For the same compound, the MBEC50 ([2]; Table S4 strains) was 125 µg/mL, the MBEC ([2]; clinical strain 1 (Table S4)) was 125 µg/mL and the MBEC ([2]; clinical strain 2 (Table S4)) was 125 µg/mL. The MBEC ([2]; clinical strain 3 (Table S4)) was 250 µg/mL, the MBEC ([2]; clinical strain 4 (Table S4)) was 125 µg/mL and the MBEC ([2]; clinical strain 5 (Table S4)) was 125 µg/mL. The MBEC ([2]; clinical strain 6 (Table S4)) was 125 µg/mL, the MBEC ([2]; clinical strain 7 (Table S4)) was 125 µg/mL and the MBEC ([2]; clinical strain 8 (Table S4)) was 31.25 µg/mL. For the same compound, the MBEC ([2]; clinical strain 9 (Table S4)) was 250 µg/mL, the MBEC ([2]; clinical strain 11 (Table S4)) was 250 µg/mL and the MBEC ([2]; clinical strain 12 (Table S4)) was 125 µg/mL. For the same compound, the MBEC ([2]; clinical strain 13 (Table S4)) was 62.5 µg/mL, the MBEC ([2]; clinical strain 15 (Table S4)) was 125 µg/mL and the MBEC ([2]; clinical strain 16 (Table S4)) was 62.5 µg/mL. It also gave an MBEC ([2]; clinical strain 17 (Table S4)) of 62.5 µg/mL, an MBEC ([2]; clinical strain 19 (Table S4)) of 31.25 µg/mL and an MBEC ([2]; clinical strain 21 (Table S4)) of 125 µg/mL. It also gave an MBEC ([2]; clinical strain 22 (Table S4)) of 125 µg/mL, an MBEC ([2]; clinical strain 23 (Table S4)) of 15.6 µg/mL and an MBEC ([2]; clinical strain 25 (Table S4)) of 31.25 µg/mL. It also gave an MBEC ([2]; clinical strain 26 (Table S4)) of 250 µg/mL, an MBEC ([2]; clinical strain 27 (Table S4)) of 250 µg/mL and an MBEC ([2]; clinical strain 28 (Table S4)) of 125 µg/mL. It also gave an MBEC ([2]; clinical strain 29 (Table S4)) of 125 µg/mL, an MBEC ([2]; clinical strain 30 (Table S4)) of 125 µg/mL and an MBEC ([2]; clinical strain 33 (Table S4)) of 125 µg/mL. For the same compound, the MBEC ([2]; clinical strain 35 (Table S4)) was 125 µg/mL, the MBEC ([2]; clinical strain 36 (Table S4)) was 125 µg/mL and the MBEC ([2]; clinical strain 37 (Table S4)) was 125 µg/mL. For the same compound, the MBEC ([2]; clinical strain 39 (Table S4)) was 31.25 µg/mL, the MBEC ([2]; clinical strain 40 (Table S4)) was 125 µg/mL and the MBEC ([2]; clinical strain 41 (Table S4)) was 125 µg/mL. For the same compound, the MBEC ([2]; clinical strain 42 (Table S4)) was 125 µg/mL, the MBEC ([2]; clinical strain 43 (Table S4)) was 250 µg/mL and the MBEC ([2]; clinical strain 44 (Table S4)) was 62.5 µg/mL. The MBEC ([2]; clinical strain 45 (Table S4)) was 125 µg/mL, the MBEC ([2]; clinical strain 46 (Table S4)) was 125 µg/mL and the MBEC ([2]; clinical strain 47 (Table S4)) was 62.5 µg/mL. It also gave an MBEC ([2]; clinical strain 49 (Table S4)) of 31.25 µg/mL, an MBEC ([2]; clinical strain 51 (Table S4)) of 125 µg/mL and an MBEC ([2]; clinical strain 55 (Table S4)) of 125 µg/mL. It also gave an MBEC ([2]; clinical strain 58 (Table S4)) of 125 µg/mL, an MBEC ([2]; clinical strain 59 (Table S4)) of 125 µg/mL and an MBEC ([2]; clinical strain 65 (Table S4)) of 125 µg/mL. It also gave an MBEC ([2]; clinical strain 66 (Table S4)) of 125 µg/mL, an MBEC ([2]; clinical strain 67 (Table S4)) of 125 µg/mL and an MBEC ([2]; clinical strain 70 (Table S4)) of 250 µg/mL. For the same compound, the MBEC ([2]; clinical strain 73 (Table S4)) was 31.25 µg/mL, the MBEC ([2]; clinical strain 74 (Table S4)) was 125 µg/mL and the MBEC ([2]; clinical strain 75 (Table S4)) was 31.25 µg/mL. It also gave an MBEC ([2]; clinical strain 78 (Table S4)) of 31.25 µg/mL and an MBEC ([2]; clinical strain 79 (Table S4)) of 31.25 µg/mL.
